Experimental findings from KR20240040049A, “신규 화합물 및 이를 포함하는 염증성 질환과 암에 대한 진단 및 치료에 사용되는 mri 조영제” (주식회사 테라노큐어, priority 2022, dated 2024) are described below.

Series [1] can be described thus: r1 relaxivity of gadolinium complexes. To be noted: in words; comparison among compounds. The format is physicochemical.
The test system of a further series is PARP. The experiment in a line: acute hepatitis animal model (LPS and D-galactosamine): PARP. The format is in vivo. To be noted: Gd-galangin i.v. 0.1 mmol/kg, galangin oral.
The subject of series [2] is LPS-induced inflamed tissue (LPS로 유발된 염증 조직). The series can be described thus: H&E staining of LPS-induced inflamed tissue. The series is classed as in vivo.
The nature of the next series: water solubility at 25℃. To be noted: for solubility: water. The format is physicochemical.
The subject of the next series is NLRP3. The series can be described thus: acute hepatitis animal model (LPS and D-galactosamine): NLRP3. To be noted: Gd-galangin i.v. 0.1 mmol/kg, galangin oral. The series is classed as in vivo.

Converted amounts (≈) assume the structure as drawn. “Also recorded” adds a separate entry of the source.

Turning to `O=C([O-])CN1CCN(CC(=O)[O-])CCN(CC(=O)O)CCN(CC(=O)[O-])CC1.[Gd+3]` [Gd-DOTA], the r1 relaxivity result in series [1] is “유사한 값”.

For orientation: solubility means the concentration that dissolves in the medium under given conditions. The low end stands for a poorly soluble substance, the high end for a readily soluble substance. `O=c1c(O)c(-c2ccccc2)oc2cc(O)cc(O)c12` [galangin, 3,5,7-트리히드록시플라본]: the “effect on PARP” value in the series with PARP is recorded as “아무런 효과를 보이지 않았으며”. For the same compound, the “intercellular spacing / closeness to normal tissue” value in series [2] (Gd-galangin i.v. versus galangin oral) is recorded as “전반적으로 더 벌어져”. In addition, the “histological state compared with LPS alone” value in series [2] (Gd-galangin i.v., galangin oral) is “더 나은 상태”. In addition, in the series “water solubility at 25℃”, the solubility in water came to 2117 µM (≈ 572 µg/mL), the “solubility in water (words)” value was “거의 물에 녹지 않는 불용성 물질; also recorded: Insoluble” and the solubility stood at 572 µg/mL (≈ 2120 µM). Further, the “effect on NLRP3” value with NLRP3 is recorded as “아무런 효과를 보이지 않았으며”.

Consider `O=c1cc(-c2ccccc2)oc2cc(O)ccc12` [7-hydroxyflavone, 7-Hydroxyflavone], for which, in the series “water solubility at 25℃”, the solubility in water stood at 356 µM (≈ 84.8 µg/mL), the “solubility in water (words)” value is given as “거의 물에 녹지 않는 불용성 물질; also recorded: Insoluble” and the solubility was 85 µg/mL (≈ 357 µM).

Consider `O=c1cc(-c2ccccc2)oc2cc(O)cc(O)c12` [chrysin], for which, in the series “water solubility at 25℃”, the solubility in water came out at 330 µM (≈ 83.9 µg/mL), the “solubility in water (words)” value was “거의 물에 녹지 않는 불용성 물질; also recorded: Insoluble” and the concentration in solution (solubility) was 84 µg/mL (≈ 330 µM).

Take `O=C([O-])CN1CCN(CC(=O)[O-])CCN(C(CO)C(O)CO)CCN(CC(=O)[O-])CC1.[Gd+3]` (stereo not drawn) [Gd-BT-DO3A]: in series [1], the r1 relaxivity result was “유사한 값”.
